Bounds are passed on as bounds.

For one assay, the target named is MIF (Homo sapiens (Human), UniProt P14174). Nature of the assay: MIF tautomerase assay using pHPP as substrate. It is filed as biochemical. Conditions: cell-free, pHPP substrate 1.5 mM, MIF 3 nM; mean pIC50 of multiple test results. How it is done: Tautomerase Assay Using pHPP as substrate
This assay measured MIF's tautomerase activity in a cell-free system and was based on the determination of initial rates of the MIF-catalyzed conversion of the ketonic into the enolic tautomer of pHPP. This was achieved by spectrophotometric quantification of the complex between borate and the product of the reaction (enolic pHPP). The substrate was prepared by conversion of the enolic pHPP into its ketonic form. To achieve this, 0.5 M pHPP in methanol was diluted 10-fold with 50 mM sodium acetate buffer at pH 6.0, and then the suspension was shaken for 24 h at room temperature in darkness, and finally stored at 4° C. for not more than 1 week, with 5 min sonication being recommended before use.
Assays were performed in small-volume clear-bottom black 96 or 384-well polystyrene plates (Greiner Bio-One). First, 2 μL of the enzyme solution containing 6 nM of MIF in DPBS, 0.025% w/v BSA, and 300 μM CHAPS was dispensed onto sample and negative control wells using Multidrop Combi with metallic tip cassettes (Thermo Fisher Scientific) previously treated with Sigmacote. Then, 2 μL of the same buffer without MIF was dispensed onto positive control wells. The reaction was started by addition of the following to all wells: 2 μL of substrate solution containing 3 mM ketonic pHPP in 200 mM boric acid, 25 mM sodium phosphate, 0.025% w/v BSA, and 300 μM CHAPS at pH 6.0. In order to remove bubbles, the plate was centrifuged in an Allegra 25R centrifuge (Beckman Coulter, Inc., Brea, CA) at 1000 rpm for 2 min at room temperature. Then, the plate was read in an EnVision. Final concentrations of enzyme and substrate were 3 nM and 1.5 mM, respectively. Initial rates were calculated for each well as the slope of the absorbance progress curve.
The data mentioned below represents a mean pIC50 value of multiple test results. It is understood that the data illustrated below may have reasonable variation depending on the specific conditions and procedures used by the person conducting the testing.

The next assay has as its system BV2 cells. Put plainly: BV2 cell proliferation assay (CCK-8). It is filed as cell-based. Conditions: Mus musculus, BV-2, 48 h treatment, CCK-8, top concentration 33.3 μM, mean pIC50 of multiple test results, read-out: BV2 Profileration pIC50 (converted). From the text: (§1) The assay measures the ability of a compound to inhibit cell proliferation using Cell Counting Kit-8 (CCK-8), which allows sensitive colorimetric assays for the determination of cell viability in cell proliferation and cytotoxicity assays. The highly water-soluble tetrazolium salt, WST-8, is reduced by dehydrogenase activities in cells to give a yellow-color formazan dye, which is soluble in the tissue culture media. The amount of the formazan dye, generated by the activities of dehydrogenases in cells, is directly proportional to the number of living cells.
(§2) The assay was performed based on the instruction of the manufacturer (Dojindo Molecular Technologies Inc., Rockville, MD, USA). To start the assay, BV2 cells were seeded at a density of […] into 96-well plates and treated with test compounds, which were used at a top final assay concentration of 33.3 μM, diluted in assay medium with 1:3 dilutions to produce 10 point concentration responses, for 48 h. After incubation, the CCK-8 solution (10 μl) was added to each well of the plate and the plates were incubated in incubator at 37° C. for 3 h. Absorbance was recorded three times independently using a microplate reader (Bio-Rad Laboratories, Richmond, CA, USA) at 450 nm.
Selected examples were tested in the BV2 cell proliferation. The data mentioned below represents a mean pIC50 value of multiple test results. It is understood that the data illustrated below may have reasonable variation depending on the specific conditions and procedures used by the person conducting the testing.

The subject of another assay is U251 cell. Nature of the assay: U251 cell proliferation assay (CCK-8). It is filed as cell-based. Conditions: Homo sapiens, U-251; U251 cells; read-out: U251 Profileration pIC50 (converted).
Excerpt: [The source words this procedure for another cell line and reports this cell line under the same test.] as §1, §2

Sequence of MIF (P14174 2-115): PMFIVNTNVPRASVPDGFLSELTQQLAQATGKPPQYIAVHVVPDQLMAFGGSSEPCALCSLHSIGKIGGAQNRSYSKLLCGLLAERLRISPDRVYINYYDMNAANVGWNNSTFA

Take `COc1cc(OCCO)ccc1C(=O)Nc1nnc(-c2cccs2)o1` [Compound 17, 4-(2-hydroxyethoxy)-2-methoxy-N-(5-(thiophen-2-yl)-1,3,4-oxadiazol-2-yl)benzamide]: the “Tautomerase Inhibition pIC50” value at MIF is given as 7.98. The values for the IC50 in the assay on BV2 cells and in the assay with U251 cell were 11.5 µM and > 1000 µM, respectively.

As to `COc1cc(OCC(=O)O)ccc1C(=O)Nc1nnc(-c2cccs2)o1` [Compound 19, 2-(3-methoxy-4-((5-(thiophen-2-yl)-1,3,4-oxadiazol-2-yl)carbamoyl)phenoxy)acetic acid], the IC50 in the assay on BV2 cells and in the assay with U251 cell was > 1000 µM each time.

As for `COc1cc(OC(C)(C)C(=O)O)ccc1C(=O)Nc1nnc(-c2cccs2)o1` [Compound 21, 2-(3-methoxy-4-((5-(thiophen-2-yl)-1,3,4-oxadiazol-2-yl)carbamoyl)phenoxy)-2-methyl propanoic acid], the IC50 in the assay on BV2 cells and in the assay with U251 cell was > 1000 µM throughout.

For `COc1cc(OCc2nn[nH]n2)ccc1C(=O)Nc1nnc(-c2cccs2)o1` [Compound 22, 4-((2H-tetrazol-5-yl)methoxy)-2-methoxy-N-(5-(thiophen-2-yl)-1,3,4-oxadiazol-2-yl)benzamide], at MIF, the “Tautomerase Inhibition pIC50” value is given as 7.91. The IC50 with BV2 cells and in the assay on U251 cell was > 1000 µM each time.

With `O=C(NCc1nnc(-c2cccs2)o1)c1ccccc1F` [Compound 44, 2-fluoro-N-((5-(thiophen-2-yl)-1,3,4-oxadiazol-2-yl)methyl)benzamide], the “Tautomerase Inhibition pIC50” value at MIF is on record as <5. In addition, the IC50 in the assay on BV2 cells is 45.7 µM; in the assay on U251 cell, > 1000 µM.

Take `COc1cccc(OC)c1C(=O)NCc1nnc(-c2cccs2)o1` [Compound 46, 2,6-dimethoxy-N-((5-(thiophen-2-yl)-1,3,4-oxadiazol-2-yl)methyl)benzamide]: the “Tautomerase Inhibition pIC50” value on MIF came out at 3.70. Also, the IC50 in the assay with BV2 cells and in the assay with U251 cell was > 1000 µM throughout.

For the molecule `COc1cc(N2CCOCC2)ccc1C(=O)NCc1nnc(-c2cccs2)o1` [Compound 51, 2-methoxy-4-morpholino-N-((5-(thiophen-2-yl)-1,3,4-oxadiazol-2-yl)methyl)benzamide], the “Tautomerase Inhibition pIC50” value at MIF was found to be 6.29. Further, the values for the IC50 in the assay on BV2 cells and with U251 cell were 13.2 µM and > 1000 µM, respectively.

Turning to `COc1cc(N2CCOCC2)ccc1C(=O)N(C)Cc1nnc(-c2cccs2)o1` [Compound 52, 2-methoxy-N-methyl-4-morpholino-N-((5-(thiophen-2-yl)-1,3,4-oxadiazol-2-yl)methyl)benzamide], at MIF, the “Tautomerase Inhibition pIC50” value is 4.20. Besides, the IC50 in the assay on BV2 cells was 3.63 µM; in the assay on U251 cell it was > 1000 µM.

Regarding `COc1cc(N2CCCCC2)ccc1C(=O)NCc1nnc(-c2cccs2)o1` [Compound 56, 2-methoxy-4-(piperidin-1-yl)-N-((5-(thiophen-2-yl)-1,3,4-oxadiazol-2-yl)methyl)benzamide], the “Tautomerase Inhibition pIC50” value at MIF is listed as 6.13. The IC50 with BV2 cells was 16.2 µM; in the assay on U251 cell, > 1000 µM.

On to `COc1cc(N2CCNCC2)ccc1C(=O)NCc1nnc(-c2cccs2)o1` [Compound 58, 2-methoxy-4-(piperazin-1-yl)-N-((5-(thiophen-2-yl)-1,3,4-oxadiazol-2-yl)methyl)benzamide], for which, at MIF, the “Tautomerase Inhibition pIC50” value is 5.95. For the same molecule, the IC50 was 35.5 µM in the assay with BV2 cells and > 1000 µM with U251 cell.

Take `COc1cc(N2CCN(C)CC2)ccc1C(=O)NCc1nnc(-c2cccs2)o1` [Compound 59, 2-methoxy-4-(4-methylpiperazin-1-yl)-N-((5-(thiophen-2-yl)-1,3,4-oxadiazol-2-yl)methyl)benzamide]: on MIF, the “Tautomerase Inhibition pIC50” value was 5.90. Besides, the IC50 in the assay with BV2 cells is 40.7 µM; in the assay on U251 cell, > 1000 µM.

Turning to `COc1cc(N2CCOCC2)ccc1C(=O)NCc1nnc(-c2ccccc2)o1` [Compound 63, 2-methoxy-4-morpholino-N-((5-phenyl-1,3,4-oxadiazol-2-yl)methyl)benzamide], on MIF, the “Tautomerase Inhibition pIC50” value was <5. Also, the IC50 was 21.4 µM with BV2 cells and > 1000 µM with U251 cell.

For the molecule `COc1cc(OCCN2CCOCC2)ccc1C(=O)NCc1nnc(-c2cccs2)o1` [Compound 69, 2-methoxy-4-(2-morpholinoethoxy)-N-((5-(thiophen-2-yl)-1,3,4-oxadiazol-2-yl)methyl)benzamide], the results for the IC50 in the assay on BV2 cells and with U251 cell were 44.7 µM and > 1000 µM, respectively.

Regarding `O=C1c2ccccc2CCN1Cc1nnc(-c2cccs2)o1` [Compound 72, 2-((5-(thiophen-2-yl)-1,3,4-oxadiazol-2-yl)methyl)-3,4-dihydroisoquinolin-1(2H)-one], the “Tautomerase Inhibition pIC50” value at MIF is <5. Further, the IC50 in the assay with BV2 cells was 123 µM; in the assay with U251 cell, > 1000 µM.

Turning to `O=C1c2ccc(Br)cc2CCN1Cc1nnc(-c2cccs2)o1` [Compound 73, 6-bromo-2-((5-(thiophen-2-yl)-1,3,4-oxadiazol-2-yl)methyl)-3,4-dihydroisoquinolin-1(2H)-one], on MIF, the “Tautomerase Inhibition pIC50” value is recorded as <5. Further, the IC50 in the assay on BV2 cells is 23.4 µM; in the assay on U251 cell, > 1000 µM.

On to `O=C1c2ccc(N3CCOCC3)cc2CCN1Cc1nnc(-c2cccs2)o1` [Compound 74, 6-morpholino-2-((5-(thiophen-2-yl)-1,3,4-oxadiazol-2-yl)methyl)-3,4-dihydroisoquinolin-1(2H)-one], for which, at MIF, the “Tautomerase Inhibition pIC50” value is <5. Besides, the IC50 in the assay on BV2 cells was 25.1 µM; in the assay with U251 cell, > 1000 µM.

Turning to `COc1cc(N2CCOCC2)ccc1NC(=O)c1nnc(-c2cccs2)o1` [Compound 75, N-(2-methoxy-4-morpholinophenyl)-5-(thiophen-2-yl)-1,3,4-oxadiazole-2-carboxamide], on MIF, the “Tautomerase Inhibition pIC50” value is <5. Moreover, the IC50 was 28.2 µM in the assay on BV2 cells and > 1000 µM with U251 cell.

Turning to `COc1cc(N2CCC(O)C2)ccc1C(=O)NCc1nnc(-c2cccs2)o1` (stereo not shown) [Compound 78, 4-(3-hydroxypyrrolidin-1-yl)-2-methoxy-N-((5-(thiophen-2-yl)-1,3,4-oxadiazol-2-yl)methyl)benzamide], the IC50 is 79.4 µM with BV2 cells and > 1000 µM in the assay with U251 cell.

`COc1cc(NCCO)ccc1C(=O)NCc1nnc(-c2cccs2)o1` [Compound 79, 4-((2-hydroxyethyl)amino)-2-methoxy-N-((5-(thiophen-2-yl)-1,3,4-oxadiazol-2-yl)methyl)benzamide]: the IC50 in the assay with BV2 cells and in the assay on U251 cell was > 1000 µM in each case.

As for `CNCCOc1ccc(C(=O)NCc2nnc(-c3cccs3)o2)c(OC)c1` [Compound 80, 2-methoxy-4-(2-(methylamino)ethoxy)-N-((5-(thiophen-2-yl)-1,3,4-oxadiazol-2-yl)methyl)benzamide], the IC50 with BV2 cells was 26.3 µM; with U251 cell, > 1000 µM.

Consider `COc1cc(OC2CCNC2)ccc1C(=O)NCc1nnc(-c2cccs2)o1` (stereo not shown) [Compound 81, 2-methoxy-4-(pyrrolidin-3-yloxy)-N-((5-(thiophen-2-yl)-1,3,4-oxadiazol-2-yl)methyl)benzamide], for which the IC50 in the assay on BV2 cells is > 1000 µM; in the assay on U251 cell, 35.5 µM.

On to `COc1cc(C(C)(C)O)ccc1C(=O)NCc1nnc(-c2cccs2)o1` [Compound 83, 4-(2-hydroxypropan-2-yl)-2-methoxy-N-((5-(thiophen-2-yl)-1,3,4-oxadiazol-2-yl)methyl)benzamide], for which the IC50 with BV2 cells and in the assay with U251 cell was > 1000 µM in each case.
